Assay: Odor threshold concentration (Log T / Log ODT) by gas chromatograph sniff port with panelists
Set-up: species or system human
Protocol: “High impact perfume raw materials” should be understood as perfume raw materials having a Log T<−4. The odor threshold concentration of a chemical compound is determined in part by its shape, polarity, partial charges and molecular mass. For convenience, the threshold concentration is presented as the common logarithm of the threshold concentration, i.e., Log [Threshold] (“Log T”).
The odor threshold concentration of a perfuming compound is determined by using a gas chromatograph (“GC”). Specifically, the gas chromatograph is calibrated to determine the exact volume of the perfume oil ingredient injected by the syringe, the precise split ratio, and the hydrocarbon response using a hydrocarbon standard of known concentration and chain-length distribution. The air flow rate is accurately measured and, assuming the duration of a human inhalation to last 12 seconds, the sampled volume is calculated. […] To determine the threshold concentration, solutions are delivered to the sniff port at the back-calculated concentration. A panelist sniffs the GC effluent and identifies the retention time when odor is noticed. The average across all panelists determines the odor threshold concentration of the perfuming compound. The determination of odor threshold is described in more detail in C.

[1] = ingredient of Perfume oil B (Table 3)
[2] = ingredient of Perfume oil C (Table 5)
[3] = ingredient of Perfume oil D (Table 7)
[4] = ingredient of Perfume oil A (Table 1)

Molecule	Log ODT [1]	Log ODT [2]	Log ODT [3]	Log ODT [4]
C=CCCC(=O)C1=CCCC(C)(C)C1	<−4	<−4		
CC12CCC(CC1)C(C)(C)O2	>−4	>−4	>−4	
COc1nccnc1CCCC(C)C	<−4			
CC1(C)CC=C(CCC=O)CC1				>−4
CC(=O)/C=C/C1=C(C)CCCC1(C)C				<−4
1-OXA-12-CYCLOHEXADECEN-2-ONE (A) + 1-OXA-13-CYCLOHEXADECEN-2-ONE (B)		>−4		
2-METHYLBUTYL SALICYLATE (A) + PENTYL SALICYLATE (B)				>−4
3,5,6-TRIMETHYL-3-CYCLOHEXENE-1-CARBALDEHYDE (A) + 2,4,6-TRIMETHYL-3-CYCLOHEXENE-1-CARBALDEHYDE (B)		>−4		
3,7-DIMETHYL-2,6-NONADIENENITRILE (A) + 3,7-DIMETHYL-3,6-NONADIENENITRILE (B)		>−4		
3-(4-ETHYLPHENYL)-2,2-DIMETHYLPROPANAL (A) + 3-(2-ETHYLPHENYL)-2,2-DIMETHYLPROPANAL (B)	>−4			
10-UNDECENAL (A) + (9E)-9-UNDECENAL (B) + (9Z)-9-UNDECENAL (C)	<−4	<−4		
C/C=C/C(=O)[C@@H]1[C@@H](C)C=CCC1(C)C (racemic)	<−4			<−4
CC(C)=CCCC(C)C=O (racemic)	>−4			>−4
C=CC(C)CCCC(C)(C)O (racemic)				>−4
CC(C)CCCC(C)CCO (racemic)	>−4			
C=CC(C)(CCC=C(C)C)OC(C)=O (racemic) [(+−)-1,5-DIMETHYL-1-VINYL-4-HEXENYL ACETATE]		>−4		>−4
CC1=CCC(C(C)(C)S)CC1 (racemic) [(+−)-2-(4-METHYL-3-CYCLOHEXEN-1-YL)-2-PROPANETHIOL]	<−4	<−4		
CCCCCCCCCC(C)C=O (racemic) [(+−)-2-METHYLUNDECANAL]	<−4	<−4	<−4	<−4
CC(C)c1cccc(C(C)CC=O)c1 (racemic) [(+−)-3-(3-ISOPROPYL-1-PHENYL)BUTANAL]	<−4			
CCCCCCCC1CCC(=O)O1 (racemic) [(+−)-5-HEPTYLDIHYDRO-2(3H)-FURANONE]		<−4		
CC/C=C(\C)C(O)CCCCC (racemic) [(+−)-(E)-4-METHYL-3-DECEN-5-OL]	>−4			>−4
CCOC(=O)C(C)CC (racemic) [(+−)-ETHYL 2-METHYLBUTANOATE]				>−4
CCCCC[C@H]1C(=O)CC[C@@H]1CC(=O)OC (racemic) [METHYL 2-((1RS,2RS)-3-OXO-2-PENTYLCYCLOPENTYL)ACETATE]		>−4		>−4
CC1=CCC2C[C@@H]1C2(C)C (single isomer, unassigned; (-))		>−4		
c1ccc(Oc2ccccc2)cc1 [1,1′-OXYDIBENZENE]				>−4

Molecule	Log ODT [1]	Log ODT [2]	Log ODT [3]	Log ODT [4]
COc1ccc(C)cc1 [1-METHOXY-4-METHYLBENZENE]				>−4
COc1ccc2ccccc2c1 [2-METHOXYNAPHTHALENE]		<−4	<−4	
CC(=O)OCCc1ccccc1 [2-PHENYLETHYL ACETATE]				>−4
CC1=CC2CC(C=O)C1CC2C(C)C (centres unmarked) [8-ISOPROPYL-6-METHYL-BICYCLO[2.2.2]OCT-5-ENE-2-CARBALDEHYDE]	<−4		<−4	
CC(=O)OCCC(C)CCC=C(C)C (centres unmarked) [37-DIMETHYL-6-OCTENYL ACETATE]		>−4		
CC(=O)O[C@@H]1CC2CC[C@]1(C)C2(C)C [(1R,2R)-1,7,7-TRIMETHYL-BICYCLO[2.2.1]HEPT-2-YL ACETATE]		>−4	>−4	
COCCc1ccccc1 [(2-METHOXYETHYL)BENZENE]	>−4			
CC/C=C\CCOC(C)=O [(Z)-3-HEXENYL ACETATE]		>−4		
CC/C=C\CCOC(=O)C(C)C [(Z)-3-HEXENYL ISOBUTYRATE]		>−4		
CC1(C)CCC[C@]2(C)[C@H]3CCO[C@]3(C)CC[C@@H]12 [(−)-(3AR,5AS,9AS,9BR)-3A,6,6,9A-TETRAMETHYLDODECAHYDRONAPHTHO[2,1-B]FURAN]	<−4		<−4	
CCCCCCCCCC(C)=O [Capsule 2-UNDECANONE, 2-UNDECANONE]	>−4			
CCCCCCCCCC=O [DECANAL]			>−4	
CCCCCCOC(=O)c1ccccc1O [HEXYL 2-HYDROXYBENZOATE]				>−4
CCCCCCOC(C)=O [HEXYL ACETATE]				>−4
CCCCCCCC=O [OCTANAL]			>−4	
O=C1CCCCCCCCCCCCCCO1 [OXACYCLOHEXADECAN-2-ONE]		>−4		
(1RS,2RS)-2,4-DIMETHYL-3-CYCLOHEXENE-1-CARBALDEHYDE (A) + (1RS,2SR)-2,4-DIMETHYL-3-CYCLOHEXENE-1-CARBALDEHYDE (B)		>−4		>−4
(2RS,4SR)-4-METHYL-2-(2-METHYL-1-PROPEN-1-YL)TETRAHYDRO-2H-PYRAN (A) + (2RS,4RS)-4-METHYL-2-(2-METHYL-1-PROPEN-1-YL)TETRAHYDRO-2H-PYRAN (B)	>−4			>−4
(2Z)-1,1-DIETHOXY-3,7-DIMETHYL-2,6-OCTADIENE (A) + (2E)-1,1-DIETHOXY-3,7-DIMETHYL-2,6-OCTADIENE (B)	>−4		>−4	
(+)-(3S)-3-[(1R)-4-METHYL-3-CYCLOHEXEN-1-YL]BUTANAL (A) + (+)-(3R)-3-[(1R)-4-METHYL-3-CYCLOHEXEN-1-YL]BUTANAL			>−4	
(+−)-4-METHYLENE-2-PHENYLTETRAHYDRO-2H-PYRAN (A) + (+−)-4-METHYL-6-PHENYL-3,6-DIHYDRO-2H-PYRAN (B) + (+−)-4-METHYL-2-PHENYL-3,6-DIHYDRO-2H-PYRAN (C)	<−4		<−4	
(+−)-(3E)-3-METHYL-4-(2,6,6-TRIMETHYL-2-CYCLOHEXEN-1-YL)-3-BUTEN-2-ONE (A) + (+−)-(1E)-1-(2,6,6-TRIMETHYL-2-CYCLOHEXEN-1-YL)-1-PENTEN-3-ONE (B)		<−4		
.ALPHA.-DIHYDROTERPINEOL (A) + BETA.-DIHYDROTERPINEOL (B)	>−4			
TRICYCLO[5.2.1.0~2,6~]DEC-3-EN-8-YL ACETATE (A) + TRICYCLO[5.2.1.0~2,6~]DEC-4-EN-8-YL ACETATE (B)	>−4			>−4
